The results in this text go back to patent publication US7384916B2, “Methods and compositions for preventing and treating aging or photodamaged skin” (ProCyte Corporation, priority 2005, dated 2008).

Holding throughout (assay type): cell-based
In experiment [1] the test system is Normal human dermal fibroblasts. The experiment in a line: Viability of dermal fibroblasts (neutral red stain). As to conditions: for Neutral Red Stain - Cell Viability: 3 days, control 212. The procedure: (§1) The effect of peptide manganese complexes on the growth and viability of fibroblasts was determined. Normal human dermal fibroblasts were seeded into a 96-well cell culture plate and grown to confluence in high glucose media supplemented with 10% fetal calf serum for 3 days. The fibroblasts were then placed in low glucose media with 2% serum and various amounts of a representative peptide manganese complex. After 3 days, the cells were incubated with neutral red to assess their viability and stained with sulforhodamin B and counted to determine the number of cells.

Experiment [2] has the same test system. The experiment in a line: Proliferation of dermal fibroblasts (sulforhodamin B stain, cell number). As to conditions: for Sulforhodamin B Stain - Cell Number / Sulforhodamin B Stain - Cell Number (% Increase): 3 days; for Sulforhodamin B Stain - Cell Number: control 313; for Sulforhodamin B Stain - Cell Number (% Increase): vs 0 ug/ml control. The procedure: as §1

For experiment [3] the test system is unchanged. The experiment in a line: Stimulation of collagen type I formation in fibroblasts (sandwich ELISA of culture media). To be noted: for ELISA Collagen Type I / ELISA Collagen Type I (% Increase): 3 days; for ELISA Collagen Type I: low glucose media with 2% serum, control 48; for ELISA Collagen Type I (% Increase): vs 0 ug/ml control. As to the method:
The effect of peptide manganese complexes on collagen formation was determined by determining the amount of collagen type I produced by human fibroblasts in cell culture. Normal human dermal fibroblasts were seeded into a 96-well cell culture plate and grown to confluence in high glucose media supplemented with 10% fetal calf serum for 3 days. The fibroblasts were then placed in low glucose media with 2% serum and various amounts of a representative peptide manganese complex. After 3 days, the culture media was collected and analyzed for collagen type I content by a sandwich ELISA assay using purified antibody to collagen type I.

“glycyl-L-histidyl-L-lysine:manganese(II)”: the figures for the “Neutral Red Stain - Cell Viability” value in experiment [1] (10 ug/ml complex) and in experiment [1] (100 ug/ml complex) were 231 and 253, respectively. In addition, the “Effect on viability of normal human dermal fibroblasts (in words)” value in experiment [1] (summary of Table 6) is listed as “increased their viability”. Besides, the “Sulforhodamin B Stain - Cell Number” value stood at 383 in experiment [2] (10 ug/ml complex) and 535 in experiment [2] (100 ug/ml complex). The “Sulforhodamin B Stain - Cell Number (% Increase)” value in experiment [2] (10 ug/ml complex) is reported as “+22%”; in experiment [2] (100 ug/ml complex), “+71%”. The “Effect on proliferation of normal human dermal fibroblasts (in words)” value in experiment [2] (summary of Table 5) is on record as “stimulated the proliferation”. Also, the “ELISA Collagen Type I” value in experiment [3] (10 ug/ml complex) worked out at 61.5; in experiment [3] (100 ug/ml complex), 102.5. The “ELISA Collagen Type I (% Increase)” value was “+28%” in experiment [3] (10 ug/ml complex) and “+129%” in experiment [3] (100 ug/ml complex). Besides, the “Effect on formation of collagen type I (in words)” value in experiment [3] (summary of Table 4) is “stimulated the formation of collagen type I”.
